ChEMBL document CHEMBL1137072, “Peptide deformylase inhibitors with activity against respiratory tract pathogens” (Bioorg Med Chem Lett, 2004)
≈ marks a conversion by molar mass, not a printed value.

Experiments:
Peptide deformylase = biological target: T1, Peptide deformylase (Escherichia coli, UniProt Q9JN24); assay: Inhibitory activity against Escherichia coli peptide deformylase (PDF) Nickel containing enzyme
T1 sequence (Q9JN24 whole entry): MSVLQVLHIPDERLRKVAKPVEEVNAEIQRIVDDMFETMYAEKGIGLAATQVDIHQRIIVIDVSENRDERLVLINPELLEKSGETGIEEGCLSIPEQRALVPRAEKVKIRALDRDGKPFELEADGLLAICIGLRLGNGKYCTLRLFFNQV

Moraxella catarrhalis [1] = assay: Minimum inhibitory concentration required for primary screening against in-house strain of Moraxella catarrhalis tested in vitro; assay type: functional
Haemophilus influenzae [2] = assay: Minimum inhibitory concentration required for primary screening against in-house strain of Haemophilus influenzae tested in vitro; Range- 0.5-2; assay type: functional
Streptococcus pneumoniae [3] = assay: Minimum inhibitory concentration required for primary screening against in-house strain of Streptococcus pneumoniae tested in vitro; assay type: functional
Escherichia coli = assay: Minimum inhibitory concentration required for primary screening against in-house strain of Escherichia coli tested in vitro; assay type: functional
Staphylococcus capitis = assay: Minimum inhibitory concentration required for primary screening against in-house strain of Staphylococcus capitis tested in vitro; assay type: functional
Haemophilus influenzae [4] = assay: Minimum inhibitory concentration required for primary screening against in-house strain of Haemophilus influenzae tested in vitro; Range- 0.25-2; assay type: functional
Haemophilus influenzae [5] = assay: Minimum inhibitory concentration required for primary screening against in-house strain of Haemophilus influenzae tested in vitro; Range- 0.125-2; assay type: functional
Streptococcus pneumoniae [6] = assay: Minimum inhibitory concentration required for primary screening against in-house strain of Streptococcus pneumoniae tested in vitro; Range- 0.25-0.5; assay type: functional
Moraxella catarrhalis [7] = assay: Minimum inhibitory concentration required for primary screening against in-house strain of Moraxella catarrhalis tested in vitro; Range- 0.125-0.25; assay type: functional
Haemophilus influenzae [8] = assay: Minimum inhibitory concentration required for primary screening against in-house strain of Haemophilus influenzae tested in vitro; Range- 0.5-8; assay type: functional
Haemophilus influenzae [9] = assay: Minimum inhibitory concentration required for primary screening against in-house strain of Haemophilus influenzae tested in vitro; Range- 0.5-4; assay type: functional
Moraxella catarrhalis [10] = assay: Minimum inhibitory concentration required for primary screening against in-house strain of Moraxella catarrhalis tested in vitro; Range- 0.015-0.12; assay type: functional
Streptococcus pneumoniae [11] = assay: Minimum inhibitory concentration required for primary screening against in-house strain of Streptococcus pneumoniae tested in vitro; Range- 0.06-2; assay type: functional
Streptococcus pneumoniae [12] = assay: Minimum inhibitory concentration required for primary screening against in-house strain of Streptococcus pneumoniae tested in vitro; Range- 1-2; assay type: functional
Haemophilus influenzae [13] = assay: Minimum inhibitory concentration required for primary screening against in-house strain of Haemophilus influenzae tested in vitro; Range- 0.12-16; assay type: functional
Streptococcus pneumoniae [14] = assay: Minimum inhibitory concentration required for primary screening against in-house strain of Streptococcus pneumoniae tested in vitro; Range- 0.008-1; assay type: functional
Moraxella catarrhalis [15] = assay: Minimum inhibitory concentration required for primary screening against in-house strain of Moraxella catarrhalis tested in vitro; Range- 0.008-0.12; assay type: functional

COc1ccc(C(=O)[C@@H](NC(=O)[C@H](CC2CCCC2)CN(O)C=O)C(C)(C)C)cc1
IC50 (Peptide deformylase): 3 nM

CCCC[C@H](CN(O)C=O)C(=O)N[C@H](C(=O)c1ccc(NS(C)(=O)=O)cc1)C(C)(C)C
IC50 (Peptide deformylase): 4 nM

CC(C)(C)[C@H](NC(=O)[C@H](CC1CCCC1)CN(O)C=O)C(=O)c1cc(F)c(F)cc1N1CCC[C@H]1CO
MIC (Moraxella catarrhalis [1]): < 0.125 µg/mL | MIC (Haemophilus influenzae [2]): < 2 µg/mL | MIC (Streptococcus pneumoniae [3]): 0.25 µg/mL (≈ 0.477 µM)

CCCC[C@H](CN(O)C=O)C(=O)N[C@H](C(=O)c1ccc(C#N)cc1)C(C)(C)C
MIC (Escherichia coli): 6.25 µM (≈ 2.42 µg/mL) | MIC (Staphylococcus capitis): 3.1 µM (≈ 1.2 µg/mL) | IC50 (Peptide deformylase): 7 nM

CC(C)(C)[C@H](NC(=O)[C@H](CC1CCCC1)CN(O)C=O)C(=O)c1ccc(O)cc1
MIC (Escherichia coli): 6.25 µM (≈ 2.53 µg/mL) | MIC (Staphylococcus capitis): 3.1 µM (≈ 1.25 µg/mL) | IC50 (Peptide deformylase): 2 nM

CC(C)(C)[C@H](NC(=O)[C@H](CC1CCCC1)CN(O)C=O)C(=O)c1ccc(S(C)(=O)=O)cc1
MIC (Escherichia coli): 25 µM (≈ 11.7 µg/mL) | MIC (Staphylococcus capitis): 6.25 µM (≈ 2.92 µg/mL) | IC50 (Peptide deformylase): 10 nM

CC(C)(C)[C@H](NC(=O)[C@H](CC1CCCC1)CN(O)C=O)C(=O)c1ccc(N2CCC(O)CC2)cc1
MIC (Moraxella catarrhalis [1]): < 0.125 µg/mL | IC50 (Peptide deformylase): 2 nM | MIC (Streptococcus pneumoniae [3]): 0.25 µg/mL (≈ 0.513 µM) | MIC (Haemophilus influenzae [4]): < 2 µg/mL

CC(C)(C)[C@H](NC(=O)[C@H](CC1CCCC1)CN(O)C=O)C(=O)c1cc2ccccc2o1
IC50 (Peptide deformylase): 4 nM

CC(C)(C)[C@H](NC(=O)[C@H](CC1CCCC1)CN(O)C=O)C(=O)c1ccc(N2CCC(O)CC2)c(F)c1
MIC (Moraxella catarrhalis [1]): < 0.125 µg/mL | IC50 (Peptide deformylase): 2 nM | MIC (Haemophilus influenzae [5]): < 2 µg/mL | MIC (Streptococcus pneumoniae [3]): 0.25 µg/mL (≈ 0.494 µM)

CC(C)(C)[C@H](NC(=O)[C@H](CC1CCCC1)CN(O)C=O)C(=O)c1ccc(N2CCN(CCN3CCCC3)CC2)c(F)c1
MIC (Streptococcus pneumoniae [6]): < 0.5 µg/mL | MIC (Moraxella catarrhalis [7]): < 0.25 µg/mL | IC50 (Peptide deformylase): 9 nM | MIC (Haemophilus influenzae [8]): < 8 µg/mL

CCCC[C@H](CN(O)C=O)C(=O)N[C@H](C(=O)c1ccc(NC(=O)C(F)(F)F)cc1)C(C)(C)C
IC50 (Peptide deformylase): 20 nM

CC(C)(C)[C@H](NC(=O)[C@H](CC1CCCC1)CN(O)C=O)C(=O)c1cc(F)c(F)cc1N1CCOCC1
MIC (Moraxella catarrhalis [1]): < 0.125 µg/mL | MIC (Streptococcus pneumoniae [6]): < 0.5 µg/mL | IC50 (Peptide deformylase): 0.5 nM | MIC90 (Haemophilus influenzae [9]): 2 µg/mL (≈ 3.92 µM) | MIC90 (Moraxella catarrhalis [10]): 0.12 µg/mL (≈ 0.235 µM) | MIC90 (Streptococcus pneumoniae [11]): 1 µg/mL (≈ 1.96 µM) | MIC (Haemophilus influenzae [4]): < 2 µg/mL

CC(C)(C)[C@H](NC(=O)[C@H](CC1CCCC1)CN(O)C=O)C(=O)c1ccc(N2CCN(CCO)CC2)cc1
MIC (Moraxella catarrhalis [1]): < 0.125 µg/mL | IC50 (Peptide deformylase): 2 nM | MIC (Streptococcus pneumoniae [12]): < 2 µg/mL | MIC (Haemophilus influenzae [4]): < 2 µg/mL

CCCC[C@H](CN(O)C=O)C(=O)N[C@H](C(=O)c1ccc(F)cc1)C(C)(C)C
IC50 (Peptide deformylase): 3 nM

CCCC[C@H](CN(O)C=O)C(=O)N[C@H](C(=O)c1ccc(NC(C)=O)cc1)C(C)(C)C
MIC (Escherichia coli): 12 µM (≈ 5.03 µg/mL) | IC50 (Peptide deformylase): 8 nM

CC(C)(C)[C@H](NC(=O)[C@H](CC1CCCC1)CN(O)C=O)C(=O)c1ccc(N2CCN(CCN3CCOCC3)CC2)cc1
MIC (Moraxella catarrhalis [1]): < 0.125 µg/mL | MIC (Streptococcus pneumoniae [6]): < 0.5 µg/mL | MIC (Haemophilus influenzae [2]): < 2 µg/mL | IC50 (Peptide deformylase): 2 nM

CC(C)(C)[C@H](NC(=O)[C@H](CC1CCCC1)CN(O)C=O)C(=O)c1ccc(F)cc1
IC50 (Peptide deformylase): 3 nM

CCCC[C@H](CN(O)C=O)C(=O)N[C@H](C(C)=O)C(C)(C)C
MIC (Escherichia coli): 25 µM (≈ 7.51 µg/mL) | MIC (Staphylococcus capitis): 100 µM (≈ 30 µg/mL)

CCCC[C@H](CN(O)C=O)C(=O)N[C@H](C(=O)c1cc2ccccc2o1)C(C)(C)C
MIC (Staphylococcus capitis): 1.5 µM (≈ 0.604 µg/mL) | IC50 (Peptide deformylase): 4 nM

CC(C)(C)[C@H](NC(=O)[C@H](CC1CCCC1)CN(O)C=O)C(=O)c1ccc(N2CCC[C@H]2CO)c(F)c1
MIC (Moraxella catarrhalis [1]): < 0.125 µg/mL | IC50 (Peptide deformylase): 2 nM | MIC (Haemophilus influenzae [5]): < 2 µg/mL | MIC (Streptococcus pneumoniae [3]): 0.25 µg/mL (≈ 0.494 µM)

CC1(C)S[C@@H]2[C@H](NC(=O)[C@H](N)c3ccc(O)cc3)C(=O)N2[C@H]1C(=O)O.O=C(O)[C@H]1/C(=C/CO)O[C@@H]2CC(=O)N21
MIC90 (Haemophilus influenzae [13]): 1 µg/mL | MIC90 (Streptococcus pneumoniae [14]): 1 µg/mL | MIC90 (Moraxella catarrhalis [15]): 0.12 µg/mL
